Where two headings read alike, the source gives them in different places. Peptide text beside a SMILES is read from it. * marks the point of attachment. Hexanoyl(6-maleimido) = O=C1C=CC(=O)N1CCCCCC(=O)*; X22 = O=C1C=CC(=O)N1CCOCCOCCOCCOCCOCCOCCCCCC(=O)*; Butanoyl(4-maleimido) = O=C1C=CC(=O)N1CCCC(=O)*; Propanoyl(3-maleimido) = O=C1C=CC(=O)N1CCC(=O)*; X29 = O=C1C=CC(=O)N1CCOCCOCCOCCOCCOCCOCCCC(=O)*; X9 = O=C1C=CC(=O)N1CCOCCOCCOCCOCCOCCCCCCCC(=O)*; X11 = O=C1C=CC(=O)N1CCOCCOCCOCCOCCOCCCCCC(=O)*; X73 = O=C1C=CC(=O)N1c1ccc(CCCCCCCCCC(=O)*)cc1; X4 = O=C1C=CC(=O)N1CCOCCOCCOCCOCCCCCCCC(=O)*; X6 = O=C1C=CC(=O)N1CCOCCOCCOCCCCCCCC(=O)*; X16 = O=C1C=CC(=O)N1CCOCCOCCCCCCC(=O)*; X62 = O=C1C=CC(=O)N1CCCCCCCCCCCCC(=O)*; X48 = O=C1C=CC(=O)N1CCCCCCCCCCCC(=O)*; X81 = O=C1C=CC(=O)N1c1ccccc1CCCC(=O)*; X3 = O=C1C=CC(=O)N1CCOCCOCCCCC(=O)*; X67 = O=C1C=CC(=O)N1CCCCCCCCCC(=O)*; X30 = O=C1C=CC(=O)N1CCOCCOCC(=O)*; X42 = O=C1C=CC(=O)N1CCOCCC(=O)*
Experiment: Half-lives and pharmacokinetic parameters of polypeptides vs HM-1
Set-up: AUC0-∞: concentration or dose not given beside the values
Settings: in vivo
[1] = read-out: T1/2β (half-life) (converted)

AUC(0-inf) [ng·h/mL]	MRT inf [h]	clearance [mL/min/kg]	half-life (T1/2β (half-life)) [h]	AUC(0-inf) (read-out: AUC0-∞) [ng·h/mL]	clearance (read-out: CL (converted)) [mL/min/kg]	MRT inf (read-out: MRT0-∞) [h]	half-life [1] [h]	AUC0-∞ [mg/L/h]	Compound
31800 ± 7130	56.9 ± 10.1	0.523	39.45 ± 0.33						C[C@H](NC(=O)CNC(=O)[C@H](CCCNC(=N)N)NC(=O)CCCCCOCCOCCOCCOCCOCCOCCN1C(=O)C=CC1=O)C(=O)N[C@@H](CC(=O)O)C(=O)N[C@@H](CCCNC(=N)N)C(=O)N[C@@H](C)C(=O)NCC(=O)NCC(=O)NCC(=O)NCC(=O)N[C@@H](CCCNC(=N)N)C(=O)NCC(=O)N[C@@H](CC(=O)O)C(=O)O [X88] (X22-RGADRAGGGGRGD-OH)
25600 ± 7550	45.7 ± 13.6	0.652	31.69 ± 0.28						C[C@H](NC(=O)CNC(=O)[C@H](CCCNC(=N)N)NC(=O)CCCCCCOCCOCCN1C(=O)C=CC1=O)C(=O)N[C@@H](CC(=O)O)C(=O)N[C@@H](CCCNC(=N)N)C(=O)N[C@@H](C)C(=O)NCC(=O)NCC(=O)NCC(=O)NCC(=O)N[C@@H](CCCNC(=N)N)C(=O)NCC(=O)N[C@@H](CC(=O)O)C(=O)O [X61] (X16-RGADRAGGGGRGD-OH)
34400 ± 8520	61.5 ± 10	0.485	42.65 ± 0.25						C[C@H](NC(=O)CNC(=O)[C@H](CCCNC(=N)N)NC(=O)CCCc1ccccc1N1C(=O)C=CC1=O)C(=O)N[C@@H](CC(=O)O)C(=O)N[C@@H](CCCNC(=N)N)C(=O)N[C@@H](C)C(=O)NCC(=O)NCC(=O)NCC(=O)NCC(=O)N[C@@H](CCCNC(=N)N)C(=O)NCC(=O)N[C@@H](CC(=O)O)C(=O)O [X15] (X81-RGADRAGGGGRGD-OH)
				26900 ± 7090	0.62	48.1 ± 14.2	33.33 ± 0.25		C[C@H](NC(=O)CNC(=O)[C@H](CCCNC(=N)N)NC(=O)CCOCCN1C(=O)C=CC1=O)C(=O)N[C@@H](CC(=O)O)C(=O)N[C@@H](CCCNC(=N)N)C(=O)N[C@@H](C)C(=O)NCC(=O)NCC(=O)NCC(=O)NCC(=O)N[C@@H](CCCNC(=N)N)C(=O)NCC(=O)N[C@@H](CC(=O)O)C(=O)O [X50] (X42-RGADRAGGGGRGD-OH)
25800 ± 8050	46.2 ± 10.2	0.645	32.03 ± 0.31						C[C@H](NC(=O)CNC(=O)[C@H](CCCNC(=N)N)NC(=O)CCCOCCOCCOCCOCCOCCOCCN1C(=O)C=CC1=O)C(=O)N[C@@H](CC(=O)O)C(=O)N[C@@H](CCCNC(=N)N)C(=O)N[C@@H](C)C(=O)NCC(=O)NCC(=O)NCC(=O)NCC(=O)N[C@@H](CCCNC(=N)N)C(=O)NCC(=O)N[C@@H](CC(=O)O)C(=O)O [X86] (X29-RGADRAGGGGRGD-OH)
24300 ± 8330	43.5 ± 12	0.685	30.15 ± 0.26						C[C@H](NC(=O)CNC(=O)[C@H](CCCNC(=N)N)NC(=O)CCCCCCCCCc1ccc(N2C(=O)C=CC2=O)cc1)C(=O)N[C@@H](CC(=O)O)C(=O)N[C@@H](CCCNC(=N)N)C(=O)N[C@@H](C)C(=O)NCC(=O)NCC(=O)NCC(=O)NCC(=O)N[C@@H](CCCNC(=N)N)C(=O)NCC(=O)N[C@@H](CC(=O)O)C(=O)O [X45] (X73-RGADRAGGGGRGD-OH)
30700 ± 8170	54.9 ± 11.5	0.543	38.06 ± 0.28						C[C@H](NC(=O)CNC(=O)[C@H](CCCNC(=N)N)NC(=O)CCCCCOCCOCCOCCOCCOCCN1C(=O)C=CC1=O)C(=O)N[C@@H](CC(=O)O)C(=O)N[C@@H](CCCNC(=N)N)C(=O)N[C@@H](C)C(=O)NCC(=O)NCC(=O)NCC(=O)NCC(=O)N[C@@H](CCCNC(=N)N)C(=O)NCC(=O)N[C@@H](CC(=O)O)C(=O)O [X81] (X11-RGADRAGGGGRGD-OH)
26900 ± 8290	48.2 ± 14.3	0.62	33.38 ± 0.32						C[C@H](NC(=O)CNC(=O)[C@H](CCCNC(=N)N)NC(=O)CCCCCCCOCCOCCOCCN1C(=O)C=CC1=O)C(=O)N[C@@H](CC(=O)O)C(=O)N[C@@H](CCCNC(=N)N)C(=O)N[C@@H](C)C(=O)NCC(=O)NCC(=O)NCC(=O)NCC(=O)N[C@@H](CCCNC(=N)N)C(=O)NCC(=O)N[C@@H](CC(=O)O)C(=O)O [X69] (X6-RGADRAGGGGRGD-OH)
31200 ± 7350	56 ± 13.3	0.537	38.78 ± 0.31						C[C@H](NC(=O)CNC(=O)[C@H](CCCNC(=N)N)NC(=O)CCCCCCCCCN1C(=O)C=CC1=O)C(=O)N[C@@H](CC(=O)O)C(=O)N[C@@H](CCCNC(=N)N)C(=O)N[C@@H](C)C(=O)NCC(=O)NCC(=O)NCC(=O)NCC(=O)N[C@@H](CCCNC(=N)N)C(=O)NCC(=O)N[C@@H](CC(=O)O)C(=O)O [X9] (X67-RGADRAGGGGRGD-OH)
32900 ± 8070	59 ± 10.1	0.507	40.86 ± 0.29						C[C@H](NC(=O)CNC(=O)[C@H](CCCNC(=N)N)NC(=O)COCCOCCN1C(=O)C=CC1=O)C(=O)N[C@@H](CC(=O)O)C(=O)N[C@@H](CCCNC(=N)N)C(=O)N[C@@H](C)C(=O)NCC(=O)NCC(=O)NCC(=O)NCC(=O)N[C@@H](CCCNC(=N)N)C(=O)NCC(=O)N[C@@H](CC(=O)O)C(=O)O [X56] (X30-RGADRAGGGGRGD-OH)
				32000 ± 7820	0.522	57.2 ± 13.9	39.63 ± 0.28		C[C@H](NC(=O)[C@H](CCCNC(=N)N)NC(=O)[C@H](CC(=O)O)NC(=O)CNC(=O)[C@H](CCCNC(=N)N)NC(=O)CCN1C(=O)C=CC1=O)C(=O)NCC(=O)NCC(=O)NCC(=O)NCC(=O)N[C@@H](CCCNC(=N)N)C(=O)NCC(=O)N[C@@H](CC(=O)O)C(=O)O [P7] ({Propanoyl(3-maleimido)}-RGDRAGGGGRGD-OH; C-terminus assumed)
				33800 ± 7660	0.493	60.5 ± 13.2	41.92 ± 0.32		C[C@H](NC(=O)CNC(=O)[C@H](CCCNC(=N)N)NC(=O)CCCN1C(=O)C=CC1=O)C(=O)N[C@@H](CC(=O)O)C(=O)N[C@@H](CCCNC(=N)N)C(=O)N[C@@H](C)C(=O)NCC(=O)NCC(=O)NCC(=O)NCC(=O)N[C@@H](CCCNC(=N)N)C(=O)NCC(=O)N[C@@H](CC(=O)O)C(=O)O [X3] ({Butanoyl(4-maleimido)}-RGADRAGGGGRGD-OH)
							31.72 ± 0.26	0.0391 ± 0.0066	CC[C@H](C)[C@H](NC(=O)[C@H](Cc1c[nH]cn1)NC(=O)[C@H](CCC(N)=O)NC(=O)[C@H](CCCNC(=N)N)NC(=O)CCCCCN1C(=O)C=CC1=O)C(=O)N[C@@H](Cc1ccccc1)C(=O)N1CCC[C@H]1C(=O)N[C@@H](CO)C(=O)N[C@H](C(=O)N[C@@H](Cc1c[nH]c2ccccc12)C(=O)N[C@@H](Cc1ccccc1)C(=O)N[C@@H](Cc1c[nH]c2ccccc12)C(=O)N[C@@H](Cc1ccc(O)cc1)C(=O)N[C@@H](Cc1ccc(O)cc1)C(=O)N1CCC[C@H]1C(=O)N[C@@H](CC(=O)O)C(=O)N[C@@H](CCCNC(=N)N)C(=O)N[C@@H](CC(C)C)C(=O)N[C@@H](CCCCN)C(=O)N[C@@H](CCSC)C(=O)N[C@@H](CCCNC(=N)N)C(=O)N[C@@H](CCC(=O)O)C(=O)N[C@@H](CC(=O)O)C(=O)O)[C@@H](C)O [P4] ({Hexanoyl(6-maleimido)}-RQHIFPSTWFWYYPDRLKMRED-OH; C-terminus assumed)
30300 ± 7110	54.2 ± 9.93	0.553	37.55 ± 0.27						C[C@H](NC(=O)CNC(=O)[C@H](CCCNC(=N)N)NC(=O)CCCCOCCOCCN1C(=O)C=CC1=O)C(=O)N[C@@H](CC(=O)O)C(=O)N[C@@H](CCCNC(=N)N)C(=O)N[C@@H](C)C(=O)NCC(=O)NCC(=O)NCC(=O)NCC(=O)N[C@@H](CCCNC(=N)N)C(=O)NCC(=O)N[C@@H](CC(=O)O)C(=O)O [X59] (X3-RGADRAGGGGRGD-OH)
33900 ± 7640	60.6 ± 10.5	0.492	42.01 ± 0.33						C[C@H](NC(=O)CNC(=O)[C@H](CCCNC(=N)N)NC(=O)CCCCCCCOCCOCCOCCOCCN1C(=O)C=CC1=O)C(=O)N[C@@H](CC(=O)O)C(=O)N[C@@H](CCCNC(=N)N)C(=O)N[C@@H](C)C(=O)NCC(=O)NCC(=O)NCC(=O)NCC(=O)N[C@@H](CCCNC(=N)N)C(=O)NCC(=O)N[C@@H](CC(=O)O)C(=O)O [X76] (X4-RGADRAGGGGRGD-OH)
29200 ± 8180	52.2 ± 9.78	0.572	36.2 ± 0.25						C[C@H](NC(=O)CNC(=O)[C@H](CCCNC(=N)N)NC(=O)CCCCCCCCCCCCN1C(=O)C=CC1=O)C(=O)N[C@@H](CC(=O)O)C(=O)N[C@@H](CCCNC(=N)N)C(=O)N[C@@H](C)C(=O)NCC(=O)NCC(=O)NCC(=O)NCC(=O)N[C@@H](CCCNC(=N)N)C(=O)NCC(=O)N[C@@H](CC(=O)O)C(=O)O [X12] (X62-RGADRAGGGGRGD-OH)
25100 ± 8260	44.9 ± 11.6	0.665	31.08 ± 0.29						C[C@H](NC(=O)CNC(=O)[C@H](CCCNC(=N)N)NC(=O)CCCCCCCCCCCN1C(=O)C=CC1=O)C(=O)N[C@@H](CC(=O)O)C(=O)N[C@@H](CCCNC(=N)N)C(=O)N[C@@H](C)C(=O)NCC(=O)NCC(=O)NCC(=O)NCC(=O)N[C@@H](CCCNC(=N)N)C(=O)NCC(=O)N[C@@H](CC(=O)O)C(=O)O [X11] (X48-RGADRAGGGGRGD-OH)
29200 ± 7640	52.3 ± 11.7	0.57	36.23 ± 0.28						C[C@H](NC(=O)CNC(=O)[C@H](CCCNC(=N)N)NC(=O)CCCCCCCOCCOCCOCCOCCOCCN1C(=O)C=CC1=O)C(=O)N[C@@H](CC(=O)O)C(=O)N[C@@H](CCCNC(=N)N)C(=O)N[C@@H](C)C(=O)NCC(=O)NCC(=O)NCC(=O)NCC(=O)N[C@@H](CCCNC(=N)N)C(=O)NCC(=O)N[C@@H](CC(=O)O)C(=O)O [X83] (X9-RGADRAGGGGRGD-OH)

From patent US20200270309A1, “MALEIMIDE GROUP-MODIFIED ANGIOGENESIS INHIBITOR HM-1 AND USE THEREOF” (NANJING ANJI BIOLOGICAL TECHNOLOGY CO., LTD, priority 2017, published 2020)
